From ChEMBL document CHEMBL4699511, “Cedrol, a Sesquiterpene Alcohol, Enhances the Anticancer Efficacy of Temozolomide in Attenuating Drug Resistance via Regulation of the DNA Damage Response and MGMT Expression” (J Nat Prod, 2020)
Active and inactive are the calls of the source. The calls are words filed in the database; no cut-off is given here.

Assays:
[1] = test system: RG2; test: Induction of cell cycle arrest in rat RG2 cells assessed as CyclinA expression at 112.4 uM after 48 hrs by Western blot analysis (reference value: 1); format: functional
[2] = test system: RG2; test: Synergistic cytotoxicity against rat RG2 cells assessed as combination index at 134.9 uM after 48 hrs in presence of 103 uM TMZ by MTT assay; format: functional
[3] = test system: DBTRG-05MG; test: Induction of cell cycle arrest in human DBTRG-05MG cells assessed as p21 expression at 112.4 uM after 48 hrs by Western blot analysis (reference value: 1); format: functional
[4] = test system: DBTRG-05MG; test: Synergistic cytotoxicity against human DBTRG-05MG cells assessed as combination index at 89.9 uM after 48 hrs in presence of 309 uM TMZ by MTT assay; format: functional
[5] = test system: DBTRG-05MG; test: Induction of cell cycle arrest in human DBTRG-05MG cells assessed as CyclinA expression at 112.4 uM after 48 hrs in presence of TMZ by Western blot analysis (reference value: 1); format: functional
[6] = test system: RG2; test: Induction of cell cycle arrest in rat RG2 cells assessed as accumulation at G0/G1 phase at 112.4 uM after 48 hrs by propidium iodide staining based flow cytometric analysis (reference value: 57.81 +/- 1.9%); format: functional
[7] = test system: DBTRG-05MG; test: Synergistic cytotoxicity against human DBTRG-05MG cells assessed as combination index at 134.9 uM after 48 hrs in presence of 412.1 uM TMZ by MTT assay; format: functional
[8] = test system: RG2; test: Synergistic cytotoxicity against rat RG2 cells assessed as synergistic effect index at 112.4 uM after 48 hrs in presence of 412.1 uM TMZ by MTT assay; format: functional
[9] = test system: DBTRG-05MG; test: Induction of apoptosis in human DBTRG-05MG cells assessed as increase in chromatin condensation at 112.4 uM after 48 hrs in presence of TMZ by TUNEL assay; format: functional, cell-based
[10] = test system: RG2; test: Inhibition of JNK phosphorylation at Thr183/Tyr185 residues in rat RG2 cells at 112.4uM after 48 hrs by Western blot analysis (reference value: 1); format: cell-based
[11] = test system: DBTRG-05MG; test: Induction of cell cycle arrest in human DBTRG-05MG cells assessed as CyclinB1 expression at 112.4 uM after 48 hrs in presence of TMZ by Western blot analysis (reference value: 1); format: functional
[12] = Synergistic cytotoxicity against rat CTX TNA2 cells assessed as combination index at 89.9 uM after 48 hrs in presence of 206 uM TMZ by MTT assay; format: cell-based; conditions: ctx tna2, 48 h
[13] = test system: RG2; test: Synergistic cytotoxicity against rat RG2 cells assessed as synergistic effect index at 134.9 uM after 48 hrs in presence of 103 uM TMZ by MTT assay; format: functional
[14] = test system: DBTRG-05MG; test: Induction of apoptosis in human DBTRG-05MG cells assessed as phosphorylated caspace-3 expression at 112.4 uM after 48 hrs by Western blot analysis (reference value: 1); format: functional
[15] = Inhibition of TMZ-induced drug resistance in human DBTRG-05MG cells assessed as MGMT expression at 112.4 uM after 48 hrs by Western blot analysis (reference value: 1.3); format: functional
[16] = Synergistic cytotoxicity against rat CTX TNA2 cells assessed as combination index at 112.4 uM after 48 hrs in presence of 103 uM TMZ by MTT assay; format: cell-based; conditions: ctx tna2, 48 h
[17] = Synergistic cytotoxicity against rat CTX TNA2 cells assessed as synergistic effect index at 89.9 uM after 48 hrs in presence of 206 uM TMZ by MTT assay; format: cell-based; conditions: ctx tna2, 48 h
[18] = test system: RG2; test: Induction of cell cycle arrest in rat RG2 cells assessed as accumulation at G2/M phase at 112.4 uM after 12 hrs in presence of TMZ by propidium iodide staining based flow cytometric analysis (reference value: 20.04 +/- 0.55%); format: functional
[19] = test system: RG2; test: Synergistic cytotoxicity against rat RG2 cells assessed as combination index at 112.4 uM after 48 hrs in presence of 515.1 uM TMZ by MTT assay; format: functional
[20] = test system: DBTRG-05MG; test: Induction of cell cycle arrest in human DBTRG-05MG cells assessed as accumulation at G2/M phase at 112.4 uM after 6 hrs in presence of TMZ by propidium iodide staining based flow cytometric analysis (reference value: 30.08 +/- 0.1%); format: functional
[21] = target: MAP kinase p38 (Homo sapiens) (UniProt O15264+Q15759+Q16539+P53778); test: Inhibition of p38 phosphorylation at Tyr182 residues in human DBTRG-05MG cells at 112.4uM after 48 hrs in presence of TMZ by Western blot analysis (reference value: 1); format: cell-based
[22] = test system: RG2; test: Induction of cell cycle arrest in rat RG2 cells assessed as accumulation at G0/G1 phase at 112.4 uM after 24 hrs by propidium iodide staining based flow cytometric analysis (reference value: 57.81 +/- 1.9%); format: functional
[23] = test system: DBTRG-05MG; test: Induction of cell cycle arrest in human DBTRG-05MG cells assessed as accumulation at G2/M phase at 112.4 uM after 12 hrs by propidium iodide staining based flow cytometric analysis (reference value: 30.08 +/- 0.1%); format: functional
[24] = test system: RG2; test: Induction of DNA damage in rat RG2 cells assessed as ATR phosphorylation at ser428 residues at 112.4 uM after 48 hrs in presence of TMZ by Western blot analysis (reference value: 1); format: functional
[25] = Effect on AKT expression in rat RG2 cells at 112.4uM after 48 hrs in presence of TMZ by Western blot analysis (reference value: 1); format: functional
[26] = test system: RG2; test: Induction of cell cycle arrest in rat RG2 cells assessed as accumulation at G2/M phase at 112.4 uM after 48 hrs by propidium iodide staining based flow cytometric analysis (reference value: 20.04 +/- 0.55%); format: functional
[27] = test system: RG2; test: Synergistic cytotoxicity against rat RG2 cells assessed as combination index at 89.9 uM after 48 hrs in presence of 103 uM TMZ by MTT assay; format: functional
[28] = test system: DBTRG-05MG; test: Induction of DNA damage in human DBTRG-05MG cells assessed as ATM phosphorylation at ser1981 residues at 112.4 uM after 48 hrs by Western blot analysis (reference value: 1); format: functional
[29] = test system: DBTRG-05MG; test: Synergistic cytotoxicity against human DBTRG-05MG cells assessed as combination index at 89.9 uM after 48 hrs in presence of 206 uM TMZ by MTT assay; format: functional
[30] = test system: RG2; test: Induction of cell cycle arrest in rat RG2 cells assessed as accumulation at S phase at 112.4 uM after 48 hrs by propidium iodide staining based flow cytometric analysis (reference value: 20.15 +/- 2.44%); format: functional
[31] = test system: RG2; test: Induction of DNA damage in rat RG2 cells assessed as Chk2 phosphorylation at Thr68 at 206 uM after 48 hrs by Western blot analysis (reference value: 1); format: functional
[32] = test system: DBTRG-05MG; test: Induction of cell cycle arrest in human DBTRG-05MG cells assessed as accumulation at S phase at 206 uM after 48 hrs by propidium iodide staining based flow cytometric analysis (reference value: 22.76 +/- 1.56%); format: functional
[33] = test system: RG2; test: Induction of DNA damage in rat RG2 cells assessed as Chk1 phosphorylation at ser345 at 206 uM after 48 hrs by Western blot analysis (reference value: 1); format: functional

**Q.** For `C[C@@H]1CC[C@H]2C(C)(C)[C@H]3C[C@@]12CC[C@@]3(C)O` [CEDROL], which “fold change (FC)” value [1] is on record?
**A.** The value was 0.4.

**Q.** And the CI [2]?
**A.** Its CI is 0.83.

**Q.** What about the “fold change (FC)” value [3] of the same molecule?
**A.** The value was 1.1.

**Q.** What about the CI [4] of the same molecule?
**A.** Its CI is 0.74.

**Q.** And the “fold change (FC)” value [5]?
**A.** The value was 1.6.

**Q.** And the Activity [6]?
**A.** The Activity was 61.9%.

**Q.** And the CI [7]?
**A.** Its CI is 0.6.

**Q.** What about the Activity_index [8] of the same molecule?
**A.** Its Activity_index is 0.84.

**Q.** And the Activity [9]?
**A.** Its Activity is “Active”.

**Q.** What about the fold change (FC) [10] of the same molecule?
**A.** The fold change (FC) was 0.7.

**Q.** What about the “fold change (FC)” value [11] of the same molecule?
**A.** Its value is 0.7.

**Q.** And the CI [12]?
**A.** The CI was 1.13.

**Q.** What about the Activity_index [13] of the same molecule?
**A.** Its Activity_index is 0.9.

**Q.** And the “fold change (FC)” value [14]?
**A.** Its value is 1.1.

**Q.** And the “fold change (FC)” value [15]?
**A.** The value was 0.8.

**Q.** What about the CI [16] of the same molecule?
**A.** Its CI is 1.24.

**Q.** And the Activity_index [17]?
**A.** Its Activity_index is 0.39.

**Q.** What about the Activity [18] of the same molecule?
**A.** The Activity was 18.79%.

**Q.** And the CI [19]?
**A.** Its CI is 1.06.

**Q.** And the Activity [20]?
**A.** The Activity was 32.51%.

**Q.** What about the fold change (FC) [21] of the same molecule?
**A.** Its fold change (FC) is 1.2.

**Q.** And the Activity [22]?
**A.** Its Activity is 72.5%.

**Q.** And the Activity [23]?
**A.** Its Activity is 31.03%.

**Q.** What about the “fold change (FC)” value [24] of the same molecule?
**A.** The value was 1.1.

**Q.** What about the “fold change (FC)” value [25] of the same molecule?
**A.** Its value is 0.4.

**Q.** What about the Activity [26] of the same molecule?
**A.** The Activity was 20.33%.

**Q.** What about the CI [27] of the same molecule?
**A.** Its CI is 0.88.

**Q.** What about the “fold change (FC)” value [28] of the same molecule?
**A.** Its value is 1.8.

**Q.** What about the CI [29] of the same molecule?
**A.** Its CI is 0.74.

**Q.** And the Activity [30]?
**A.** Its Activity is 16.62%.

**Q.** Which “fold change (FC)” value [31] does the source give for `Cn1nnc2c(C(N)=O)ncn2c1=O` [TEMOZOLOMIDE] here?
**A.** The value was 1.3.

**Q.** And the Activity [32]?
**A.** Its Activity is 23.42%.

**Q.** And the “fold change (FC)” value [33]?
**A.** The value was 1.8.
